According to PubChem BioAssay AID256 (DTP/NCI, 2004):
Several values for one entry are separate records, joined by “and”; a condition that tells them apart may be missing. Equal entries are not always repeated. Toxic doses and inconclusive results are not listed. How the source made its calls: active means survival T/C of 150% or more; inactive means T/C below 125% in these data.

Tested on: CD2F1 mice, L1210 leukemia ip, survival T/C
Experiment: NCI In Vivo Anticancer Drug Screen. Data for tumor model L1210 Leukemia (intraperitoneal) in CD2F1 (CDF1) mice
Conditions: higher = longer survival
Summary of the method: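 Read-out first: treated-group measurement over vehicle-control measurement, expressed as a ratio. Animals bore a transplanted tumor line and were dosed with compound or vehicle.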

[1] = endpoint: mean survival time, dose: 100.0 mg/kg/injection, schedule: Q01DX001 (ip), vehicle: saline with Tween-80
[2] = endpoint: mean survival time, dose: 200.0 mg/kg/injection, schedule: Q01DX001 (ip), vehicle: saline with Tween-80
[3] = endpoint: mean survival time, dose: 100.0 mg/kg/injection, schedule: Q04DX003 (ip), vehicle: saline with Tween-80
[4] = endpoint: mean survival time, dose: 200.0 mg/kg/injection, schedule: Q04DX003 (ip), vehicle: saline with Tween-80
[5] = endpoint: mean survival time, dose: 400.0 mg/kg/injection, schedule: Q04DX003 (ip), vehicle: saline with Tween-80
[6] = endpoint: mean survival time, dose: 100.0 mg/kg/injection, schedule: Q01DX009 (ip), vehicle: saline with Tween-80
[7] = endpoint: mean survival time, dose: 200.0 mg/kg/injection, schedule: Q01DX009 (ip), vehicle: saline with Tween-80
[8] = endpoint: mean survival time, dose: 400.0 mg/kg/injection, schedule: Q01DX009 (ip), vehicle: saline with Tween-80
[9] = endpoint: mean survival time, dose: 100.0 mg/kg/injection, schedule: Q01DX009 (ip), vehicle: saline
[10] = endpoint: mean survival time, dose: 200.0 mg/kg/injection, schedule: Q01DX009 (ip), vehicle: saline
[11] = endpoint: mean survival time, dose: 50.0 mg/kg/injection, schedule: Q01DX009 (ip), vehicle: saline with Tween-80

Measured: T/C

CSc1ncnc2c1cnn2C1OC(COC(C)=O)C(OC(C)=O)C1OC(C)=O (centres undefined)
inactive: endpoint: median survival time, dose: 9.0 mg/kg/injection, schedule: Q01DX005 (ip), vehicle: distilled water + Tween-80 101 % of control | endpoint: median survival time, dose: 9.0 mg/kg/injection, schedule: Q01DX009 (ip), vehicle: distilled water + Tween-80 100 % of control | endpoint: median survival time, dose: 18.0 mg/kg/injection, schedule: Q01DX005 (ip), vehicle: distilled water + Tween-80 98 % of control | endpoint: median survival time, dose: 18.0 mg/kg/injection, schedule: Q01DX009 (ip), vehicle: distilled water + Tween-80 101 % of control | endpoint: median survival time, dose: 36.0 mg/kg/injection, schedule: Q01DX005 (ip), vehicle: distilled water + Tween-80 108 % of control | endpoint: median survival time, dose: 36.0 mg/kg/injection, schedule: Q01DX009 (ip), vehicle: distilled water + Tween-80 100 % of control | endpoint: median survival time, dose: 72.0 mg/kg/injection, schedule: Q01DX009 (ip), vehicle: distilled water + Tween-80 107 % of control | endpoint: median survival time, dose: 144.0 mg/kg/injection, schedule: Q01DX005 (ip), vehicle: distilled water + Tween-80 118 % of control | endpoint: median survival time, dose: 144.0 mg/kg/injection, schedule: Q01DX009 (ip), vehicle: distilled water + Tween-80 113 % of control

CCCCN=C(Cl)C(Cl)(c1ccccc1)c1ccccc1
inactive: endpoint: mean survival time, dose: 100.0 mg/kg/injection, schedule: Q04DX002 (ip), vehicle: saline 98 % of control | endpoint: mean survival time, dose: 200.0 mg/kg/injection, schedule: Q04DX002 (ip), vehicle: saline 103 % of control | endpoint: mean survival time, dose: 400.0 mg/kg/injection, schedule: Q04DX002 (ip), vehicle: saline 95 % of control

OC(CI)C(O)C(O)C(O)CI (centres undefined) (tested in a mixture with another compound)
inactive: endpoint: mean survival time, dose: 50.0 mg/kg/injection, schedule: Q01DX001 (ip), vehicle: saline with Tween-80 96 % of control | [1] 100 % of control | [2] 96 % of control

O=C(CC(=O)Nc1ccccc1)Nc1ccccc1
inactive: [3] 100 % of control | [4] 100 % of control | [5] 99 % of control

CCN(CC)[S+](C)(=O)/C=C(\[O-])Nc1ccccc1 (centres undefined)
inactive: endpoint: mean survival time, dose: 25.0 mg/kg/injection, schedule: Q01DX001 (ip), vehicle: other 103 % of control | endpoint: mean survival time, dose: 50.0 mg/kg/injection, schedule: Q01DX001 (ip), vehicle: other 94 % of control | endpoint: mean survival time, dose: 100.0 mg/kg/injection, schedule: Q01DX001 (ip), vehicle: other 90 % of control

c1ccc2c(c1)ccc1c(C3CO3)cccc12 (centres undefined)
inactive: endpoint: mean survival time, dose: 100.0 mg/kg/injection, schedule: Q01DX005 (ip), vehicle: saline with Tween-80 103 % of control | [6] 93 % of control | endpoint: mean survival time, dose: 200.0 mg/kg/injection, schedule: Q01DX005 (ip), vehicle: saline with Tween-80 106 % of control | [7] 101 % of control | endpoint: mean survival time, dose: 400.0 mg/kg/injection, schedule: Q01DX005 (ip), vehicle: saline with Tween-80 95 % of control | [8] 101 % of control

CC1CN1P(=O)(N1CC1C)N1CC1C (centres undefined)
inactive: endpoint: mean survival time, dose: 9.5 mg/kg/injection, schedule: Q01DX001 (ip), vehicle: saline 101 % of control | endpoint: mean survival time, dose: 19.0 mg/kg/injection, schedule: Q01DX001 (ip), vehicle: saline 106 % of control | endpoint: mean survival time, dose: 38.0 mg/kg/injection, schedule: Q01DX001 (ip), vehicle: saline 117 % of control

CCOc1cc([N+](=O)[O-])c(OCC)cc1Cl
inactive: [6] 90 % of control | [3] 92 % of control | [7] 96 % of control | [4] 89 % of control | [8] 98 % of control | [5] 93 % of control

Brc1ccc2ncc3ccccc3c2c1
inactive: endpoint: mean survival time, dose: 100.0 mg/kg/injection, schedule: Q01DX001 (ip), vehicle: saline 93 % of control | endpoint: mean survival time, dose: 200.0 mg/kg/injection, schedule: Q01DX001 (ip), vehicle: saline 98 % of control | endpoint: mean survival time, dose: 400.0 mg/kg/injection, schedule: Q01DX001 (ip), vehicle: saline 96 % of control

O=C(Nc1cccc([N+](=O)[O-])c1)c1cc2ccccc2cc1O
inactive: [9] 101 % of control | [3] 95 % of control | [10] 97 % of control | [4] 95 % of control | endpoint: mean survival time, dose: 400.0 mg/kg/injection, schedule: Q01DX009 (ip), vehicle: saline 98 % of control | [5] 87 % of control

CCCCC=C(C1CCCC1C)C1CCCC1C (centres undefined)
inactive: [1] 97 % of control | [2] 102 % of control | endpoint: mean survival time, dose: 400.0 mg/kg/injection, schedule: Q01DX001 (ip), vehicle: saline with Tween-80 94 % of control

COc1nc(-c2ccncc2)nc(N(C)C)n1
inactive: endpoint: mean survival time, dose: 4.5 mg/kg/injection, schedule: Q04DX002 (ip), vehicle: saline 98 % of control | endpoint: mean survival time, dose: 9.0 mg/kg/injection, schedule: Q04DX002 (ip), vehicle: saline 103 % of control

O=C1OC2CCCCC2c2ccccc21 (centres undefined)
inactive: [3] 98 % of control | [4] 96 % of control | [5] 98 % of control

CCCCN(Cl)CCCC
inactive: endpoint: mean survival time, dose: 25.0 mg/kg/injection, schedule: Q04DX002 (ip), vehicle: saline with Tween-80 92 % of control | endpoint: mean survival time, dose: 50.0 mg/kg/injection, schedule: Q04DX002 (ip), vehicle: saline with Tween-80 92 % of control | endpoint: mean survival time, dose: 100.0 mg/kg/injection, schedule: Q04DX002 (ip), vehicle: saline with Tween-80 103 % of control

CCOC(=O)CC(O)c1ccccc1 (centres undefined)
inactive: [11] 102 % of control | [6] 102 % of control | [7] 98 % of control

CN(C)c1ccc(-c2c3cc(O)c(=O)cc-3oc3cc(O)c(O)cc23)cc1
inactive: [11] 92 % of control | [6] 95 % of control | [7] 91 % of control

CN=NNc1ccc(C(=O)NC(C)C)cc1
inactive: endpoint: mean survival time, dose: 25.0 mg/kg/injection, schedule: Q01DX009 (ip), vehicle: DMSO 112 % of control | endpoint: mean survival time, dose: 25.0 mg/kg/injection, schedule: Q01DX009 (ip), vehicle: other 110 % of control | endpoint: mean survival time, dose: 50.0 mg/kg/injection, schedule: Q01DX009 (ip), vehicle: DMSO 114 % of control | endpoint: mean survival time, dose: 50.0 mg/kg/injection, schedule: Q01DX009 (ip), vehicle: other 102 % of control and 109 % of control | endpoint: mean survival time, dose: 100.0 mg/kg/injection, schedule: Q01DX009 (ip), vehicle: other 107 % of control | endpoint: mean survival time, dose: 200.0 mg/kg/injection, schedule: Q01DX009 (ip), vehicle: DMSO 86 % of control

Nc1ncnc2c1nc(N1CCCC1)n2C1OC(CO)C(O)C1O (centres undefined)
inactive: endpoint: mean survival time, dose: 12.5 mg/kg/injection, schedule: Q01DX005 (ip), vehicle: distilled water + Tween-80 104 % of control and 93 % of control | endpoint: mean survival time, dose: 25.0 mg/kg/injection, schedule: Q01DX005 (ip), vehicle: distilled water + Tween-80 104 % of control and 98 % of control | endpoint: mean survival time, dose: 50.0 mg/kg/injection, schedule: Q01DX005 (ip), vehicle: distilled water + Tween-80 102 % of control and 100 % of control | endpoint: mean survival time, dose: 100.0 mg/kg/injection, schedule: Q01DX005 (ip), vehicle: distilled water + Tween-80 100 % of control and 90 % of control | endpoint: mean survival time, dose: 200.0 mg/kg/injection, schedule: Q01DX005 (ip), vehicle: distilled water + Tween-80 105 % of control and 97 % of control

NC(=S)N/N=C/c1cccnc1
inactive: endpoint: mean survival time, dose: 50.0 mg/kg/injection, schedule: Q01DX009 (ip), vehicle: saline 109 % of control | [9] 101 % of control | [10] 106 % of control

COc1ccc(C(=O)CC(C(=O)O)c2ccc(OC)c(OC)c2)cc1OC (centres undefined)
inactive: [3] 98 % of control | [4] 102 % of control | [5] 91 % of control
